Test system: human neuroblastoma cells (SH-SY5Y)
Assay: Serotonin release of SH-SY5Y cells after stimulation (Serotonin-ELISA, standardized to DNA content)
Conditions: for Serotonin release [% control]: 3 minutes stimulation in Krebs-Ringer HEPES buffer
From the text: After serotonin release, the cells are harvested with trypsin and, after a vitality test by trypan blue staining, sown in a defined number of cells in 35 mm cell culture dishes.
The cells are lysed with a sodium laurylsarcosinate-containing buffer and the DNA content is ascertained with the aid of a NanoQuant plate (Tecan, Ménnendorf, Switzerland) for standardization of the serotonin release.

O=C(/C=C/C=C/CCc1ccc2c(c1)OCO2)N1CCCCC1 [Compound 3, 2E,4E-7-(1,3-Benzodioxol-5-yl)-1-(1-piperidyl)hepta-2,4-dien-1-one]
Serotonin release [% control] (0.01 μM compound): 161 % control
Serotonin release [% control] (0.1 μM compound): 141 % control
rise in serotonin release compared to the control (1 μM compound): 280%
Serotonin release [% control] (1 μM compound): 283 % control
Serotonin release [% control] (10 μM compound): 226 % control

COC(=O)/C=C/C=C/CCc1ccc2c(c1)OCO2 [Compound 4, 2E,4E-Methyl 7-(1,3-benzodioxol-5-yl)hepta-2,4-dienoate]
Serotonin release [% control] (0.01 μM compound): 129 % control
Serotonin release [% control] (0.1 μM compound): 123 % control
rise in serotonin release compared to the control (1 μM compound): 240%
Serotonin release [% control] (1 μM compound): 239 % control
Serotonin release [% control] (10 μM compound): 171 % control
